The target in assay [1] is mutEGFR (D770_N771insNPG, T790). The assay is described as follows: mutEGFR (D770_N771insNPG, T790) kinase assay. The class given is biochemical, human.
The target in assay [2] is mutEGFR (D770_N771insSVD) (Homo sapiens, UniProt P00533, INS767SVD). The assay is described as follows: Exon20-mutant-EGFR (D770_N771insSVD) TR-FRET kinase assay. In kind it is biochemical. To be noted: 2 mM ATP, 15 min preincubation. In short, it runs like this: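 GST-fused human EGFR fragment R669-A1210 carrying the SVD insertion, Sf9-expressed, typically 15 pg/μl, was preincubated with compound for 15 min at 22° C in pH 7.0 Hepes/MgCl2 buffer. Phosphorylation was read by HTRF (665/620 nm ratio), normalised to no-inhibitor and no-enzyme controls.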
A general note: Time-resolved FRET reads energy transfer from a long-lived donor to a nearby acceptor.

Assay [3] has as its system BA/F3 (insSVD) cells. The assay is described as follows: Ba/F3 cell survival assay (Cell Titer-Glo), EGFR-insSVD. The class given is cell-based. To be noted: Mus musculus, BaF3, 48 h, without IL-3, with EGF. In short, it runs like this: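 Ba/F3 cells stably expressing EGFR-insSVD or insSVD T790M via retrovirus (puromycin-selected), switched from IL-3 to 10 ng/mL EGF for 2 days, then plated at 4000 cells/well. Compound added by 100 nL pin transfer; 48 h at 37° C. Viability by CellTiter-Glo luminescence.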
A general note: ATP-based viability assays read luminescence as a measure of living cells.

Sequence of mutEGFR (D770_N771insNPG, T790) (P00533 with tags, fused parts or gaps INS770NPG limits assumed): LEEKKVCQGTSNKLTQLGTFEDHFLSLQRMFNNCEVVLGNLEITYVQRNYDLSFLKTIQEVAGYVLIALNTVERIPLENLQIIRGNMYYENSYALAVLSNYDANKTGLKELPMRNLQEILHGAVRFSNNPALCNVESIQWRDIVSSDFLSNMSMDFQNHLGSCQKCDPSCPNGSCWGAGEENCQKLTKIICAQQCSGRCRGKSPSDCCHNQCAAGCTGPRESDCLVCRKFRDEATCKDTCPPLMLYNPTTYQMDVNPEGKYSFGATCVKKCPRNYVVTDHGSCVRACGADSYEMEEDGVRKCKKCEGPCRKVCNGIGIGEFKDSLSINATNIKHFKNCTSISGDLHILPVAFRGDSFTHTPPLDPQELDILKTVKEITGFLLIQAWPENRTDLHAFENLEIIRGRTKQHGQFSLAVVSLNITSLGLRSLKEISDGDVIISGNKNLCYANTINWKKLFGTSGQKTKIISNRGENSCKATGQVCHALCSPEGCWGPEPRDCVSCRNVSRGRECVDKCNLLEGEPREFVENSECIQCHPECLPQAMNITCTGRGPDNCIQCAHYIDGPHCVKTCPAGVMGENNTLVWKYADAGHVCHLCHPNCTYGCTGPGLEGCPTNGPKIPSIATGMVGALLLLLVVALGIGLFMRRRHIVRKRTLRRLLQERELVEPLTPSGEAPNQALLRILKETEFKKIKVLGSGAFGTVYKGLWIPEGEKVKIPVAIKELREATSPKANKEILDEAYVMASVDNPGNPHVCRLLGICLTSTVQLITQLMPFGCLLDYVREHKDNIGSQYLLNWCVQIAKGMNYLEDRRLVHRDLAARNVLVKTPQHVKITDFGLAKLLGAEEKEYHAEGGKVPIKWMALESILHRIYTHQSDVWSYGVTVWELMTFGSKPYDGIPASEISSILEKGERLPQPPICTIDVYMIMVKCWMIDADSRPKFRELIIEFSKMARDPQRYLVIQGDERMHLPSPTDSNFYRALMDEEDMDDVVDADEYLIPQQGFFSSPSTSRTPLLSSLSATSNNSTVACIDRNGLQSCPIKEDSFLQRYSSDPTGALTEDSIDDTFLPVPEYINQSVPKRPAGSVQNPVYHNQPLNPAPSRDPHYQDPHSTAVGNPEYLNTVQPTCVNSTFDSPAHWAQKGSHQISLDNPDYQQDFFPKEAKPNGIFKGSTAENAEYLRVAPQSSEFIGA
Sequence of mutEGFR (D770_N771insSVD) (P00533 with tags, fused parts or gaps INS767SVD limits assumed): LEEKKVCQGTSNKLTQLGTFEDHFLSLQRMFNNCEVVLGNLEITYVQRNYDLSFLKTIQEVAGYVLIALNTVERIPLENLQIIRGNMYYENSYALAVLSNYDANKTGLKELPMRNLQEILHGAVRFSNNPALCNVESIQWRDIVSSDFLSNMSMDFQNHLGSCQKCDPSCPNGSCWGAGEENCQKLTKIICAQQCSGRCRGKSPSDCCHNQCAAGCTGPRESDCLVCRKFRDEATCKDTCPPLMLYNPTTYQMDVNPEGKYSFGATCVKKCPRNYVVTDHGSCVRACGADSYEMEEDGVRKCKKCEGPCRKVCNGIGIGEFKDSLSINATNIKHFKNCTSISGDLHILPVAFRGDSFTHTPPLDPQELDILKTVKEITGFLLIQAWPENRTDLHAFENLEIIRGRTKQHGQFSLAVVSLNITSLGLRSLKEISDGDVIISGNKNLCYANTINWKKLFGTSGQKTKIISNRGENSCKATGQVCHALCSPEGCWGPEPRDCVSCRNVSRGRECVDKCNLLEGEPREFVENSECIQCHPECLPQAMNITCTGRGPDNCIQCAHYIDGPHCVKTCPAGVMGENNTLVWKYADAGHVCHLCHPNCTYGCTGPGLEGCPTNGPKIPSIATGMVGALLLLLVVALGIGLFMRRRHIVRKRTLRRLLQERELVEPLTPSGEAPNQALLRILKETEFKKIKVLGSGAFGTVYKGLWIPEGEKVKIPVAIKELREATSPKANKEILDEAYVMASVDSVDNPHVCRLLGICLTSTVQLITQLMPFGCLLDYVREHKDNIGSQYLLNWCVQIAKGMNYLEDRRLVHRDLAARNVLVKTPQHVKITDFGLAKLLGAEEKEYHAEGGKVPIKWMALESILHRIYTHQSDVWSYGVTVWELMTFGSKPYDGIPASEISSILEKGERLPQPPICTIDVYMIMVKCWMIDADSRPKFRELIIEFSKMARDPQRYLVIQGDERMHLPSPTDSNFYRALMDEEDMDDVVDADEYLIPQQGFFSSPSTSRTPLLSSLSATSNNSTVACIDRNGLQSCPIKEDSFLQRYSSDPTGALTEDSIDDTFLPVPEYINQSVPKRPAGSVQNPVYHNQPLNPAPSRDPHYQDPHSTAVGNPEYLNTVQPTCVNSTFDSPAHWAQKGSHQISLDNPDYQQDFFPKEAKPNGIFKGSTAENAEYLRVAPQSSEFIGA

What is called IC50 is the concentration needed to halve the response being measured. Read a high IC50 as lower potency. In the case of `C=CC(=O)N1CCC[C@H]1COc1cnccc1-c1[nH]c2cccnc2c1-c1cc(C#N)ccc1F` [Example 90, 4-fluoro-3-[2-(3-{[(2S)-1-(prop-2-enoyl)pyrrolidin-2-yl]methoxy}pyridin-4-yl)-1H-pyrrolo[3,2-b]pyridin-3-yl]benzonitrile], the IC50 in assay [1] is 62.5 nM; in assay [2], 34.3 nM; in assay [3], 999 nM.
Turning to `C=C(F)C(=O)N1CCC[C@H]1COc1cnccc1-c1[nH]c2cccnc2c1-c1ccccc1` [Example 91, 2-fluoro-1-[(2S)-2-({[4-(3-phenyl-1H-pyrrolo[3,2-b]pyridin-2-yl)pyridin-3-yl]oxy}methyl)pyrrolidin-1-yl]prop-2-en-1-one], the IC50 came out at 769 nM in assay [1], 77.3 nM in assay [2] and 1470 nM in assay [3].
For `C/C=C/C(=O)N1CCC[C@H]1COc1cnccc1-c1[nH]c2cccnc2c1-c1ccccc1` [Example 92, (2E)-1-[(2S)-2-({[4-(3-phenyl-1H-pyrrolo[3,2-b]pyridin-2-yl)pyridin-3-yl]oxy}methyl)pyrrolidin-1-yl]but-2-en-1-one], in that order: over 20000 nM, 3750 nM and 7050 nM.
The corresponding values for `C#CC(=O)N1CCC[C@H]1COc1cnccc1-c1[nH]c2cccnc2c1-c1ccccc1` [Example 93, 1-[(2S)-2-({[4-(3-phenyl-1H-pyrrolo[3,2-b]pyridin-2-yl)pyridin-3-yl]oxy}methyl)pyrrolidin-1-yl]prop-2-yn-1-one] are 3.14 nM, 1.02 nM and 55.3 nM.
For `CC#CC(=O)N1CCC[C@H]1COc1cnccc1-c1[nH]c2cccnc2c1-c1ccccc1` [Example 94, 1-[(2S)-2-({[4-(3-phenyl-1H-pyrrolo[3,2-b]pyridin-2-yl)pyridin-3-yl]oxy}methyl)pyrrolidin-1-yl]but-2-yn-1-one], in that order: over 1630 nM, 365 nM and 2440 nM.
Turning to `Cn1ccc(C#CC(=O)N2CCC[C@H]2COc2cnccc2-c2[nH]c3cccnc3c2-c2ccccc2)n1` [Example 95, 3-(1-methyl-1H-pyrazol-3-yl)-1-[(2S)-2-({[4-(3-phenyl-1H-pyrrolo[3,2-b]pyridin-2-yl)pyridin-3-yl]oxy}methyl)pyrrolidin-1-yl]prop-2-yn-1-one], the half-inhibitory concentration (IC50) came out at 246 nM in assay [1], 71.2 nM in assay [2] and 682 nM in assay [3].
The corresponding values for `CN(C)C/C=C/C(=O)N1CCC[C@H]1COc1cnccc1-c1[nH]c2cccnc2c1-c1cccc(C(F)(F)F)c1` [Example 96, (2E)-4-(dimethylamino)-1-[(2S)-2-{[(4-{3-[3-(trifluoromethyl)phenyl]-1H-pyrrolo[3,2-b]pyridin-2-yl}pyridin-3-yl)oxy]methyl}pyrrolidin-1-yl]but-2-en-1-one] are 22.1 nM, 3.45 nM and 373 nM.
For `CN(C)C/C=C/C(=O)N1CCC[C@H]1COc1cnccc1-c1[nH]c2cccnc2c1-c1cc(Cl)ccc1F` [Example 97, (2E)-1-{(2S)-2-[({4-[3-(5-chloro-2-fluorophenyl)-1H-pyrrolo[3,2-b]pyridin-2-yl]pyridin-3-yl}oxy)methyl]pyrrolidin-1-yl}-4-(dimethylamino)but-2-en-1-one], in that order: 8.62 nM, 2.03 nM and 179 nM.
The corresponding values for `CN(C)C/C=C\C(=O)N1CCC[C@H]1COc1cnccc1-c1[nH]c2cccnc2c1-c1ccccc1` [Example 98, (2Z)-4-(dimethylamino)-1-[(2S)-2-({[4-(3-phenyl-1H-pyrrolo[3,2-b]pyridin-2-yl)pyridin-3-yl]oxy}methyl)pyrrolidin-1-yl]but-2-en-1-one] are 59.1 nM, 14.6 nM and 747 nM.
Take `O=C(/C=C/CN1CCCC1)N1CCC[C@H]1COc1cnccc1-c1[nH]c2cccnc2c1-c1ccccc1` [Example 99, (2E)-1-[(2S)-2-({[4-(3-phenyl-1H-pyrrolo[3,2-b]pyridin-2-yl)pyridin-3-yl]oxy}methyl)pyrrolidin-1-yl]-4-(pyrrolidin-1-yl)but-2-en-1-one]: the concentration for half-maximal inhibition (IC50) in assay [1] was found to be 10.8 nM; in assay [2] it was 2.32 nM; in assay [3] it was 115 nM.
For `CN(C)CC#CC(=O)N1CCC[C@H]1COc1cnccc1-c1[nH]c2cccnc2c1-c1ccccc1` [Example 100, 4-(dimethylamino)-1-[(2S)-2-({[4-(3-phenyl-1H-pyrrolo[3,2-b]pyridin-2-yl)pyridin-3-yl]oxy}methyl)pyrrolidin-1-yl]but-2-yn-1-one], in that order: 4.67 nM, 1.11 nM and 57.5 nM.
In the case of `C=CS(=O)(=O)N1CCC[C@H]1COc1cnccc1-c1[nH]c2cccnc2c1-c1cc(C(F)(F)F)ccc1F` [Example 101, 2-(3-{[(2S)-1-(ethenesulfonyl)pyrrolidin-2-yl]methoxy}pyridin-4-yl)-3-[2-fluoro-5-(trifluoromethyl)phenyl]-1H-pyrrolo[3,2-b]pyridine], the IC50 in assay [1] worked out at 89.8 nM; in assay [2], 52.2 nM; in assay [3] it was 957 nM.
For `C#Cc1cccc(-c2c(-c3ccncc3OC[C@@H]3CCCN3C(=O)C=C)[nH]c3cccnc23)c1` [Example 102, 1-{(2S)-2-[({4-[3-(3-ethynylphenyl)-1H-pyrrolo[3,2-b]pyridin-2-yl]pyridin-3-yl}oxy)methyl]pyrrolidin-1-yl}prop-2-en-1-one], the IC50 came out at 1.29 nM in assay [1], 0.417 nM in assay [2] and 135 nM in assay [3].
The corresponding values for `C=CC(=O)N1CCC[C@H]1COc1cnccc1-c1[nH]c2cccnc2c1-c1ccc(F)c(OC(F)F)c1` [Example 103, 1-[(2S)-2-{[(4-{3-[3-(difluoromethoxy)-4-fluorophenyl]-1H-pyrrolo[3,2-b]pyridin-2-yl}pyridin-3-yl)oxy]methyl}pyrrolidin-1-yl]prop-2-en-1-one] are 16.9 nM, 3.56 nM and 650 nM.
In the case of `CN(C)C/C=C/C(=O)N1CCC[C@H]1COc1cnccc1-c1[nH]c2cccnc2c1-c1ccc(F)c(OC(F)F)c1` [Example 104, (2E)-1-[(2S)-2-{[(4-{3-[3-(difluoromethoxy)-4-fluorophenyl]-1H-pyrrolo[3,2-b]pyridin-2-yl}pyridin-3-yl)oxy]methyl}pyrrolidin-1-yl]-4-(dimethylamino)but-2-en-1-one], the IC50 was 149 nM in assay [1], 36.9 nM in assay [2] and 1380 nM in assay [3].
The corresponding values for `C=CS(=O)(=O)N1CCC[C@H]1COc1cnccc1-c1[nH]c2cccnc2c1-c1ccc(F)c(OC(F)F)c1` [Example 105, 3-[3-(difluoromethoxy)-4-fluorophenyl]-2-(3-{[(2S)-1-(ethenesulfonyl)pyrrolidin-2-yl]methoxy}pyridin-4-yl)-1H-pyrrolo[3,2-b]pyridine] are 0.537 nM, 0.207 nM and 31.1 nM.
For `C=CC(=O)N1CCC[C@H]1COc1cnccc1-c1[nH]c2cccnc2c1-c1ccc(F)c(OC(F)(F)F)c1` [Example 106, 1-[(2S)-2-{[(4-{3-[4-fluoro-3-(trifluoromethoxy)phenyl]-1H-pyrrolo[3,2-b]pyridin-2-yl}pyridin-3-yl)oxy]methyl}pyrrolidin-1-yl]prop-2-en-1-one], in that order: 77.4 nM, 13.3 nM and 1630 nM.
For `CN(C)C/C=C/C(=O)N1CCC[C@H]1COc1cnccc1-c1[nH]c2cccnc2c1-c1ccc(F)c(OC(F)(F)F)c1` [Example 107, (2E)-4-(dimethylamino)-1-[(2S)-2-{[(4-{3-[4-fluoro-3-(trifluoromethoxy)phenyl]-1H-pyrrolo[3,2-b]pyridin-2-yl}pyridin-3-yl)oxy]methyl}pyrrolidin-1-yl]but-2-en-1-one], in that order: 342 nM, 94.5 nM and 1510 nM.
As to `C=CS(=O)(=O)N1CCC[C@H]1COc1cnccc1-c1[nH]c2cccnc2c1-c1ccc(F)c(OC(F)(F)F)c1` [Example 108, 2-(3-{[(2S)-1-(ethenesulfonyl)pyrrolidin-2-yl]methoxy}pyridin-4-yl)-3-[4-fluoro-3-(trifluoromethoxy)phenyl]-1H-pyrrolo[3,2-b]pyridine], the IC50 in assay [1] turned out to be 2.41 nM; in assay [2], 0.557 nM; in assay [3] it was 70.4 nM.
With `C=CC(=O)N1CCC[C@H]1COc1cncc(F)c1-c1[nH]c2cccnc2c1-c1ccccc1` [Example 109, 1-[(2S)-2-({[5-fluoro-4-(3-phenyl-1H-pyrrolo[3,2-b]pyridin-2-yl)pyridin-3-yl]oxy}methyl)pyrrolidin-1-yl]prop-2-en-1-one], the IC50 in assay [1] was found to be 83.7 nM; in assay [2] it was 0.573 nM; in assay [3] it was 46.6 nM.
The corresponding values for `C=CC(=O)N1C[C@@H](C)C[C@H]1COc1cnccc1-c1[nH]c2cccnc2c1-c1ccccc1` [Example 110, 1-[(2S,4S)-4-methyl-2-({[4-(3-phenyl-1H-pyrrolo[3,2-b]pyridin-2-yl)pyridin-3-yl]oxy}methyl)pyrrolidin-1-yl]prop-2-en-1-one] are 5.97 nM, 1.27 nM and 37.5 nM.
The corresponding values for `C=CC(=O)N1CC(F)(F)C[C@H]1COc1cnccc1-c1[nH]c2cccnc2c1-c1ccccc1` [Example 112, 1-[(2S)-4,4-difluoro-2-({[4-(3-phenyl-1H-pyrrolo[3,2-b]pyridin-2-yl)pyridin-3-yl]oxy}methyl)pyrrolidin-1-yl]prop-2-en-1-one] are 0.979 nM, 0.215 nM and 17.5 nM.

For the origin of these results see patent US20260035365A1, “1H-PYRROLO[3,2-B]PYRIDINE DERIVATIVES AS IRREVERSIBLE INHIBITORS OF MUTANT EGFR FOR THE TREATMENT OF CANCER” (Bayer Aktiengesellschaft, priority 2022, published 2026).
